Patent US3974135A, “Synthetic decapeptide having the activity of the luteinizing hormone releasing hormone and method for producing the same” (priority 1972, dated 1976)
Values joined by “and” are separate entries in the source; they are usually repeats but may differ in a detail not shown here. Identical values can stand only once.

System: LH
Experiment: LRH assay in vivo in rats: serum LH by radioimmunoassay before and after injection of the peptide
Conditions: for mμg LH/ml serum before: before injection; for increase of the LH level: in vivo assay in rats
Procedure: The LRH assay was performed by the procedure of Ramirez and McCann (Endocrinology 73, 193 (1963) ). Serum assays for LH were performed in duplicate by the double antibody radioimmuno assay of Niswender et al. (Proc. Soc. Exp. Biol. Med. 128, 807 (1968)) using antiovine LH serum and ovine LH-^131 I. The activity was determined by comparison of LH levels before and after injection of the peptide.

| SMILES | mμg LH/ml serum before (dose level 25 μg) | mμg LH/ml serum after (dose level 200 μg, after injection) | mμg LH/ml serum before (dose level 200 μg) | doses at which it releases LRH (active dose) | increase of the LH level (dose of 25 ng) | increase of the LH level (dose of 50 ng) | potency compared among the three decapeptides I, II, III (rat, in vivo) |
| --- | --- | --- | --- | --- | --- | --- | --- |
| CC(C)C[C@H](NC(=O)CNC(=O)[C@H](Cc1ccc(O)cc1)NC(=O)[C@H](CO)NC(=O)[C@H](Cc1c[nH]c2ccccc12)NC(=O)[C@H](Cc1c[nH]cn1)NC(=O)[C@@H]1CCC(=O)N1)C(=O)N[C@@H](CCCNC(=N)N)C(=O)N1CCC[C@H]1C(=O)NCC(=O)O [II, pGlu-His-Trp-Ser-Tyr-Gly-Leu-Arg-Pro-Gly-OH] | 4.4 mμg LH/ml serum and 5.8 mμg LH/ml serum | > 285.0 mμg LH/ml serum | < 4.0 mμg LH/ml serum and 4.0 mμg LH/ml serum | – | – | – | – |
| CC(C)C[C@H](NC(=O)CNC(=O)[C@H](Cc1ccc(O)cc1)NC(=O)[C@H](CO)NC(=O)[C@H](Cc1c[nH]c2ccccc12)NC(=O)[C@H](Cc1c[nH]cn1)NC(=O)[C@@H]1CCC(=O)N1)C(=O)N[C@@H](CCCNC(=N)N)C(=O)N1CCC[C@H]1C(=O)NCC(N)=O [I, pGlu-His-Trp-Ser-Tyr-Gly-Leu-Arg-Pro-Gly-NH2] | – | – | – | 1 to 25 ng | 30 times | maximum increase | most potent |
